Laboratory results as given in patent US20240327353A1.
Where two headings read alike, the source gives them in different places.

How the values were obtained:
[1] = target: T1, 5-HT2AR (Homo sapiens, UniProt P28223); experiment: Radioligand binding (competitive displacement and saturation), cell membranes; details: displacement of [^3H]ketanserin; mean of n independent experiments, ± SD where n ≥ 5
T1 construct: host or cells: HEK293, transient
Experimental: (§1) Transfections were performed for 48 hours.

[2] = target: T2, H1R (Homo sapiens, UniProt P35367); experiment: as above
T2 construct: host or cells: CHO, transient
T2 sequence (P35367 whole entry): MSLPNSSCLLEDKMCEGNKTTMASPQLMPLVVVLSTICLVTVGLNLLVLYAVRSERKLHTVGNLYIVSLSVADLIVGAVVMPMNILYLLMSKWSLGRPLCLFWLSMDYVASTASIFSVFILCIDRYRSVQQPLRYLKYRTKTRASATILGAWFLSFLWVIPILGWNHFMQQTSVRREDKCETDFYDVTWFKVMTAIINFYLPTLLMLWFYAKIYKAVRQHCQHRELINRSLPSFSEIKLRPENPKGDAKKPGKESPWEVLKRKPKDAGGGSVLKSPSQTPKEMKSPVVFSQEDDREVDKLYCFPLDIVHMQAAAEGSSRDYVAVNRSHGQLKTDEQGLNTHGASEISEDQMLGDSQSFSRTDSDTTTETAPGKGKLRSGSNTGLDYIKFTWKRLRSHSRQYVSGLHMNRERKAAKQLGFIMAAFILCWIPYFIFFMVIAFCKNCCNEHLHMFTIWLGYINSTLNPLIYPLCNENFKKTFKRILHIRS
Experimental: as §1

[3] = target: T3, 5-HT1A (Homo sapiens, UniProt P08908); experiment: Radioligand binding, cell membranes
T3 construct: host or cells: HEK293T, transient
T3 sequence (P08908 1-422): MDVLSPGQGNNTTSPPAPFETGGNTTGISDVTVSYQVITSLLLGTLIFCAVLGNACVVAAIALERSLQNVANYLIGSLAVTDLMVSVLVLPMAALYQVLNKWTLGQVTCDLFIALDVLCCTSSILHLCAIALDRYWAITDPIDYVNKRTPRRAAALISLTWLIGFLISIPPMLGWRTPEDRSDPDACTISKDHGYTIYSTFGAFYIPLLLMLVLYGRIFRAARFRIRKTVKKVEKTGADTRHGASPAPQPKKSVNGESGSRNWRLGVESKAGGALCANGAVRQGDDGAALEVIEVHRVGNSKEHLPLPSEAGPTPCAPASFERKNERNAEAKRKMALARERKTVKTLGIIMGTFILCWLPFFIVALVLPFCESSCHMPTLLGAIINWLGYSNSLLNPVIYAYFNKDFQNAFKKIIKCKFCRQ
Experimental: as §1

[4] = target: 5-HT7 (Homo sapiens, UniProt P34969); experiment: Radioligand binding, cell membranes
Chain of 5-HT7 (P34969 1-445 isoform P34969-2): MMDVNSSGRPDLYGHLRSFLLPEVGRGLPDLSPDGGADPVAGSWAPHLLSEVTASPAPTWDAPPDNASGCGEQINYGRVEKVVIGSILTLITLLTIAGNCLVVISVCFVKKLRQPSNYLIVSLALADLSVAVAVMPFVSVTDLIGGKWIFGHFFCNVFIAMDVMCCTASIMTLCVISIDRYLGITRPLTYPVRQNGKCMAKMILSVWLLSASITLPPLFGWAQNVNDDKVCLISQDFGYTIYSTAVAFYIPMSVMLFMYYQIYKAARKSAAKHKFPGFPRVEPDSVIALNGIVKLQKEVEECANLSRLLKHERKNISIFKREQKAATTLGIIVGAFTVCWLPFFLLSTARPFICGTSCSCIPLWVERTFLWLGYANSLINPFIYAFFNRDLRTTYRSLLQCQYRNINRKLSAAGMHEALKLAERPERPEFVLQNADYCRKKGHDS
Experimental: as §1

[5] = target: D2L (Homo sapiens, UniProt P14416); experiment: Radioligand binding, cell membranes
Chain of D2L (P14416 whole entry): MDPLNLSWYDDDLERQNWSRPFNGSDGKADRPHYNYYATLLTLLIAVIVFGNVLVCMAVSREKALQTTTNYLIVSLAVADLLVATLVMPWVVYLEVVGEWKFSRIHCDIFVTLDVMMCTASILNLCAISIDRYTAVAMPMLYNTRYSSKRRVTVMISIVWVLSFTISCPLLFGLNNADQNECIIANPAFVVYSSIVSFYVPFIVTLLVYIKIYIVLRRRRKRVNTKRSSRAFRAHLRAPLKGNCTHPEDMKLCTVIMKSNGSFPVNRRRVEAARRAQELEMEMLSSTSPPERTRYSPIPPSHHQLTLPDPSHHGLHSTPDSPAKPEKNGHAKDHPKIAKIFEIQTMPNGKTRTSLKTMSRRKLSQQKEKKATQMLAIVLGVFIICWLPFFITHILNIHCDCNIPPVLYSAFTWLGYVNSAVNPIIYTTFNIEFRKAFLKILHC
Experimental: as §1

[6] = target: D3 (Homo sapiens, UniProt P35462); experiment: Radioligand binding, cell membranes
Chain of D3 (P35462 whole entry): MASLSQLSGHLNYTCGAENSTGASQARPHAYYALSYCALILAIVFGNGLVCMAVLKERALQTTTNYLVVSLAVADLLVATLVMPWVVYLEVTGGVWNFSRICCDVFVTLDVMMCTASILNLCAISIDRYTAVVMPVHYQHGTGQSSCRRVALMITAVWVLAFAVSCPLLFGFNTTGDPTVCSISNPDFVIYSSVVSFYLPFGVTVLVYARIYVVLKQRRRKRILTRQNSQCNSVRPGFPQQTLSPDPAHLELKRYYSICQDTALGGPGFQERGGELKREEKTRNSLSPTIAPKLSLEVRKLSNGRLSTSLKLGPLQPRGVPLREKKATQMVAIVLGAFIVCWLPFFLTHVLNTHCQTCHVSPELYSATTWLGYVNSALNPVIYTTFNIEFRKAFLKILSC
Experimental: as §1

[7] = target: T4, C322K^6.34 5-HT2AR (Homo sapiens, UniProt P28223, C322K); experiment: IP1 accumulation assay, inverse agonism at constitutively activated receptor; type: cell-based
T4 construct: expressed in transfected cells; host or cells: clonal cells
T4 sequence (P28223 whole entry C322K): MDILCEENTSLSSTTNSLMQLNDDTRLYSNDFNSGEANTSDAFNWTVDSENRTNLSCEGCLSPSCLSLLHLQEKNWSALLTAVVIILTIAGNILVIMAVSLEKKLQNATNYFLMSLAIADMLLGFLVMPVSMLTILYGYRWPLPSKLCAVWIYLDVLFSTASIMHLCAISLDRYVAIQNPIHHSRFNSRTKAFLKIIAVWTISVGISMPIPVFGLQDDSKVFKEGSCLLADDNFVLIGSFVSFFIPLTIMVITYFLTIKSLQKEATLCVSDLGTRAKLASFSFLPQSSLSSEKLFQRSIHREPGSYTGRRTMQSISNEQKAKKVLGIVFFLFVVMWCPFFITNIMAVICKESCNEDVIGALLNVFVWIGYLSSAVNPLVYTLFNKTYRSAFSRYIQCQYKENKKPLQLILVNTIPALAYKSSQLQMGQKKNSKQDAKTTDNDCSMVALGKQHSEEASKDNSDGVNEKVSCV
Experimental: as §1

[8] = target: T5, F213K^4.63 5-HT2AR (Homo sapiens, UniProt P28223, F213K); experiment: IP1 accumulation assay at point-mutated 5-HT2AR; type: cell-based; details: in the presence of 1 μM 5-HT; ± SD
T5 construct: expressed in transfected cells; host or cells: clonal cells
T5 sequence (P28223 whole entry F213K): as the sequence (P28223 whole entry C322K) above, with F213K, K322C counted along it
Experimental: as §1

[9] = target: T6, G238S^5.42 5-HT2AR (Homo sapiens, UniProt P28223, G238S); experiment: IP1 accumulation assay at point-mutated 5-HT2AR; type: cell-based; details: in the presence of 1 μM 5-HT; ± SD
T6 construct: expressed in transfected cells; host or cells: clonal cells
T6 sequence (P28223 whole entry G238S): as the sequence (P28223 whole entry C322K) above, with G238S, K322C counted along it
Experimental: as §1

[10] = target: T7, I210V^4.60 5-HT2AR (Homo sapiens, UniProt P28223, I210V); experiment: IP1 accumulation assay at point-mutated 5-HT2AR; type: cell-based; details: in the presence of 1 μM 5-HT; ± SD
T7 construct: expressed in transfected cells; host or cells: clonal cells
T7 sequence (P28223 whole entry I210V): as the sequence (P28223 whole entry C322K) above, with I210V, K322C counted along it
Experimental: as §1

[11] = target: T8, S242A^5.46 5-HT2AR (Homo sapiens, UniProt P28223, S242A); experiment: IP1 accumulation assay at point-mutated 5-HT2AR; type: cell-based; details: in the presence of 1 μM 5-HT; ± SD
T8 construct: expressed in transfected cells; host or cells: clonal cells
T8 sequence (P28223 whole entry S242A): as the sequence (P28223 whole entry C322K) above, with S242A, K322C counted along it
Experimental: as §1

[12] = target: T9, V235M^5.39 5-HT2AR (Homo sapiens, UniProt P28223, V235M); experiment: IP1 accumulation assay at point-mutated 5-HT2AR; type: cell-based; details: in the presence of 1 μM 5-HT; ± SD
T9 construct: expressed in transfected cells; host or cells: clonal cells
T9 sequence (P28223 whole entry V235M): as the sequence (P28223 whole entry C322K) above, with V235M, K322C counted along it
Experimental: as §1

[13] = test system: male C57BL/6J mice; experiment: Locomotor activity, compound alone (open field); type: in vivo; details: 3 mg*kg^−1 s.c. (FIG. 3C)
[14] = target: T10, α1A-adrenergic receptor (Homo sapiens, UniProt P35348)
T10 sequence (P35348 1-466): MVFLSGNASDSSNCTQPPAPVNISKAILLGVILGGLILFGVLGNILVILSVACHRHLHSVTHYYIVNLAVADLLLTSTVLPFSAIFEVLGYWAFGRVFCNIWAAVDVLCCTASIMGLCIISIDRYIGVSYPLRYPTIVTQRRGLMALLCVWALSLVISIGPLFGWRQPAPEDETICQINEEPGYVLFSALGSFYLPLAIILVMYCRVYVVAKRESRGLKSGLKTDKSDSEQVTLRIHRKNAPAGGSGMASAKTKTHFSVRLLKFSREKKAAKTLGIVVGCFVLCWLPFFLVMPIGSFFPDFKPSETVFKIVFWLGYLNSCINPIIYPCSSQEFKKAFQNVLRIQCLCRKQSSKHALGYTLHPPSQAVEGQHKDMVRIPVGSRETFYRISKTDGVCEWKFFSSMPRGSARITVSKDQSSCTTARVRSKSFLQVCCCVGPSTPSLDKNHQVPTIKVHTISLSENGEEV

[15] = target: T11, α1B-adrenergic receptor (Homo sapiens, UniProt P35368)
T11 sequence (P35368 1-520): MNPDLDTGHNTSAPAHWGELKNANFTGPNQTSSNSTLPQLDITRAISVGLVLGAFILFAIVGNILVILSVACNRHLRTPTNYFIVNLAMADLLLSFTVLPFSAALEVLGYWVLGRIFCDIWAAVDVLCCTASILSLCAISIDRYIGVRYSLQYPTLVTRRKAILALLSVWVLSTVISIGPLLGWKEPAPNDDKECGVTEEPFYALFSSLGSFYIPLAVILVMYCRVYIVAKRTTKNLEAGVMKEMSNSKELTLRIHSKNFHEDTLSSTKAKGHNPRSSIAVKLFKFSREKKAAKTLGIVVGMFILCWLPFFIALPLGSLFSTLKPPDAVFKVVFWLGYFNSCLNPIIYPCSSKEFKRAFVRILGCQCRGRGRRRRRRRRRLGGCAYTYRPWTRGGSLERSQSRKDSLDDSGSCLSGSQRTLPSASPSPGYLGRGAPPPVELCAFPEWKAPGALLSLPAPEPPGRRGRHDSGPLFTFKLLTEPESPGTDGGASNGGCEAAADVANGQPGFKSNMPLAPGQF

[16] = target: human wild-type 5-HT2A (Homo sapiens, UniProt P28223); experiment: IP-One HTRF IP1 accumulation assay; details: antagonism of IP1 accumulation in the presence of 1 μM 5-HT; ± SD
Chain of human wild-type 5-HT2A (P28223 whole entry): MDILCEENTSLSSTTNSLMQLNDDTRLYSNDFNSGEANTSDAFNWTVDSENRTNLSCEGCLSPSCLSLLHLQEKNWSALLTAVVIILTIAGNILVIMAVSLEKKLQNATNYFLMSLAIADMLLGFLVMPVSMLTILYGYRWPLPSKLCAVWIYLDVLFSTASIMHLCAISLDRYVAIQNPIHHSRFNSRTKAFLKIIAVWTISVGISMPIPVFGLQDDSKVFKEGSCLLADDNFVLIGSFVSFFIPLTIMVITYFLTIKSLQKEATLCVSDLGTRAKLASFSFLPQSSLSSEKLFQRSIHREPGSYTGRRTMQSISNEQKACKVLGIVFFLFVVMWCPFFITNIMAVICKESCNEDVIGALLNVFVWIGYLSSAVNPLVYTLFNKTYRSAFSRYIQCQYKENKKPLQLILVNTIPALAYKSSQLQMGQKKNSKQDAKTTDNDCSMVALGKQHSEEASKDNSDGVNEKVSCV

[17] = target: human wild-type 5-HT2C (Homo sapiens, UniProt P28335); experiment: IP-One HTRF IP1 accumulation assay
Chain of human wild-type 5-HT2C (P28335 33-458): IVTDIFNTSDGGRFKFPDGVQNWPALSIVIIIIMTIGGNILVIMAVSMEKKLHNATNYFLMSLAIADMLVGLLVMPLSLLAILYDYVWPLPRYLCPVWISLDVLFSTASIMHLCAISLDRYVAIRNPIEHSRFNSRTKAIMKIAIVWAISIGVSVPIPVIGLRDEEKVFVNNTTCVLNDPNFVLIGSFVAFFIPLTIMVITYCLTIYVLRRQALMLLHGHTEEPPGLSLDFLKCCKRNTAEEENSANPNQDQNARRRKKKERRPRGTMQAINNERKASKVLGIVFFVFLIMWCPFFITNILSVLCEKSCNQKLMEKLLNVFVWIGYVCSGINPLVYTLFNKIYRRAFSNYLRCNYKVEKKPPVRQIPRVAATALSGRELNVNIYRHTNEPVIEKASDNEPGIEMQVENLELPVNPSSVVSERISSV

[18] = target: human wild-type H1R (Homo sapiens, UniProt P35367); experiment: IP-One HTRF IP1 accumulation assay; details: competitive antagonism of histamine-stimulated IP1 accumulation (10 μM histamine)
Chain of human wild-type H1R (P35367 whole entry): as the sequence (P35367 whole entry) above

[19] = test system: male C57BL/6J mice; experiment: (±)-DOI-elicited head twitch response; details: 1 mg*kg^−1 (±)-DOI s.c.; pretreatment s.c.; every dose tested (PIMA, (2S,4R)-2k 0.3 or 3 mg kg^−1; (2R,4R)-3h 3.0 or 5.6 mg kg^−1)
[20] = target: T10, α1A-adrenergic receptor; experiment: biochemical
[21] = target: T11, α1B-adrenergic receptor; experiment: biochemical
[22] = [^3H]5-CT, mean of n independent experiments

T1 sequence (P28223 whole entry): as the sequence (P28223 whole entry) above

Compound: CN(C)[C@@H]1Cc2ccccc2[C@H](c2cccc(-c3cccc(F)c3)c2)C1 (single isomer, unassigned) [(2R,4R)-3h, Cis-4-(3′-fluoro-[1,1′-biphenyl]-3-yl)-N,N-dimethyl-1,2,3,4-tetrahydronaphthalen-2-amine]
- pKi 5-HT2AR [1]: 9.46 ± 0.34
- pKi H1R [2]: 7.31 ^(2) 7.39-7.23 8.96^(3) 9.11-8.88 6.20^(2) 6.23-6.18 6.30 ± 0.10^(5) 6.42-6.14
- pKi 5-HT1A [3, 22]: <5.0^(3)
- pKi 5-HT7 [4, 22]: 6.29^(4)
- pKi D2L ([5]; [^3H]spiperone, mean of n independent experiments): <5.0^(3)
- pKi D3 [6]: 6.21 ^(3)
- inverse agonist efficacy at C322K^6.34 5-HT2ARs (reduction of basal IP1 accumulation) [7]: ~60%
- pIC50 inverse agonism at C322K^6.34 5-HT2ARs [7]: 6.81±0.39
- pKb F213K^4.63 5-HT2AR [8]: 7.04 ± 0.17
- pKb G238S^5.42 5-HT2AR [9]: 4.59 ± 0.48
- pKb I210V^4.60 5-HT2AR [10]: 7.18 ± 0.22
- pKb S242A^5.46 5-HT2AR [11]: 6.85 ± 0.36
- pKb V235M^5.39 5-HT2AR [12]: 7.02 ± 0.26
- locomotor activity, compound administered alone [13]: preserving general locomotor ability
- Ki [14]: 0.741 µM
- Ki [15]: 0.794 µM
- pKb Wild type 5-HT2AR [16]: 6.97 ± 0.37
- inverse agonist efficacy (Imax) at 5-HT2CRs [17]: exhibits inverse agonism
- pKb at H1Rs [18]: 5.82±0.22
- head twitch response elicited by (±)-DOI [19]: significantly attenuated the head twitch response

Compound: CN(C)[C@@H]1Cc2ccccc2[C@@H](c2cccc(Br)c2)C1 (single isomer, unassigned) [(2S,4R)-2a, Trans-4-(3-bromophenyl)-N, N-dimethyl-1,2,3,4-tetrahydronaphthalen-2-amine]
- Ki ([3]; read-out: pKi 5-HT1A (converted)): > 10 µM
- Ki ([4]; read-out: pKi 5-HT7 (converted)): 0.0417 µM
- Ki ([5]; read-out: pKi D2L (converted)): 0.0692 µM
- Ki ([6]; read-out: pKi D3 (converted)): 0.12 µM
- inverse agonist efficacy at C322K^6.34 5-HT2ARs (reduction of basal IP1 accumulation) ([7]; below basal): ~50%
- Ki [20]: 0.0102 µM
- Ki [21]: 3.24 µM
